# Measured values published in ChEMBL document CHEMBL5236641, “Persistent challenges in the development of an mGlu7 PAM in vivo tool compound: The discovery of VU6046980” (Bioorg Med Chem Lett, 2023).
# Active and inactive are the calls of the source. The calls are words filed in the database; no cut-off is given here.
# Assays:
# [1] = target: Metabotropic glutamate receptor 7 (Rattus norvegicus, UniProt P35400); test: Positive allosteric modulation of rat mGluR7
# [2] = (§1) Positive allosteric modulation of rat mGluR8
# [3] = target: T1, Metabotropic glutamate receptor 8 (Homo sapiens, UniProt O00222); test: Positive allosteric modulation of mGluR8 (unknown origin)
# T1 sequence (O00222 whole entry): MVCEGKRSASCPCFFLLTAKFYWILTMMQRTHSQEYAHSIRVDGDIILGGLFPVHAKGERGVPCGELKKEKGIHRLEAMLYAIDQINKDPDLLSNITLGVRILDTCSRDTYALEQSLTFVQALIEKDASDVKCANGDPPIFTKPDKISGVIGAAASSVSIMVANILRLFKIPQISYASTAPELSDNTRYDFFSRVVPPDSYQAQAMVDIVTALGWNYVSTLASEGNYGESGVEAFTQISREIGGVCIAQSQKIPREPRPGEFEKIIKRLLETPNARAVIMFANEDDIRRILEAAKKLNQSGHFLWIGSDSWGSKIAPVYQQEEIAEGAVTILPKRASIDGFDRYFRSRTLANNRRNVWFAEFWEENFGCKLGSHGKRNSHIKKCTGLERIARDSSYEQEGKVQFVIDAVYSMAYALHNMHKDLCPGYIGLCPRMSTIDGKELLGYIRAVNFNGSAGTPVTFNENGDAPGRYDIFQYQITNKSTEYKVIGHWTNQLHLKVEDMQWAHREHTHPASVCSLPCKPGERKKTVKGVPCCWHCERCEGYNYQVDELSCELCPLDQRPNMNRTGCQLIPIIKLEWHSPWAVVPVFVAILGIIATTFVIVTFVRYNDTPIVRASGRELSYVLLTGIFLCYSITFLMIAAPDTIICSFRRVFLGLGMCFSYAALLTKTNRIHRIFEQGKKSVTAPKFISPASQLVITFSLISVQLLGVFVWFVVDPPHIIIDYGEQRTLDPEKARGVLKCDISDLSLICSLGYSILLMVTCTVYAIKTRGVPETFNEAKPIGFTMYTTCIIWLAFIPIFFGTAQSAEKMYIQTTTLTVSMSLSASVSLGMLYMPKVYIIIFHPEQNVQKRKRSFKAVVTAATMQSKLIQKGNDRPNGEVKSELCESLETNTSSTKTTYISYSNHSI
# Rattus norvegicus [4] = organism: Rattus norvegicus; test: as §1
# [5] = target: T2, Metabotropic glutamate receptor 1 (Homo sapiens, UniProt Q13255); test: Positive allosteric modulation of human mGluR1
# T2 sequence (Q13255 whole entry): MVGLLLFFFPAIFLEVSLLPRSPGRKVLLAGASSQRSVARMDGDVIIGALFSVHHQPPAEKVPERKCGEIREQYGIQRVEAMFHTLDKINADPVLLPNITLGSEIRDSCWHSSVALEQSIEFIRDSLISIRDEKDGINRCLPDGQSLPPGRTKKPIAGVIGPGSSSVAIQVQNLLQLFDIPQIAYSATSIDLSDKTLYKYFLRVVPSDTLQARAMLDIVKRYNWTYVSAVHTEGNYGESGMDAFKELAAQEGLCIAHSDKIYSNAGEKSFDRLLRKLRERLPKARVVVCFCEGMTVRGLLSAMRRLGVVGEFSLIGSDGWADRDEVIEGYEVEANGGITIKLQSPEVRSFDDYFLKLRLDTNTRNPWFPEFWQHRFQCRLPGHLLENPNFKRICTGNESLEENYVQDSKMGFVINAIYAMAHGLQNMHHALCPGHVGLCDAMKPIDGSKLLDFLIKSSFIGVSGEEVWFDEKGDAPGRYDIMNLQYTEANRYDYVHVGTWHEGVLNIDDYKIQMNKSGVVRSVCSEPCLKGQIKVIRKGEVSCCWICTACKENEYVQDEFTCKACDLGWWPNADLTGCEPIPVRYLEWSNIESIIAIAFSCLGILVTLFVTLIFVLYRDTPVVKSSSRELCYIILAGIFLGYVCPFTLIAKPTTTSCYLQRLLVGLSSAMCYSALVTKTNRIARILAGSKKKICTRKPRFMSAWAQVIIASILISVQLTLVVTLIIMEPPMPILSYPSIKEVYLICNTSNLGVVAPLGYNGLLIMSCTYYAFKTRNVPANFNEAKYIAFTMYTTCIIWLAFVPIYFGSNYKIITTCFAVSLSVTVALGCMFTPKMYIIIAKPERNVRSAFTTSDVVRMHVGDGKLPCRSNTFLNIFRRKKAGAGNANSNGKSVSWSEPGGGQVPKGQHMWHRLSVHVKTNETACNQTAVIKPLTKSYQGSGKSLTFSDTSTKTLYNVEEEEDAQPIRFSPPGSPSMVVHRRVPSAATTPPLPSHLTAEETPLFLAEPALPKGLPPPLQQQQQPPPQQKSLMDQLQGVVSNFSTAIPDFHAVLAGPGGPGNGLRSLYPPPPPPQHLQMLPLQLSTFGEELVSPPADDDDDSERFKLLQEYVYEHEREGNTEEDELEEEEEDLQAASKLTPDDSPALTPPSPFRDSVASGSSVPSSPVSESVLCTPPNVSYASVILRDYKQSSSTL
# [6] = target: T3, Metabotropic glutamate receptor 2 (Homo sapiens, UniProt Q14416); test: Positive allosteric modulation of human mGluR2
# T3 sequence (Q14416 whole entry): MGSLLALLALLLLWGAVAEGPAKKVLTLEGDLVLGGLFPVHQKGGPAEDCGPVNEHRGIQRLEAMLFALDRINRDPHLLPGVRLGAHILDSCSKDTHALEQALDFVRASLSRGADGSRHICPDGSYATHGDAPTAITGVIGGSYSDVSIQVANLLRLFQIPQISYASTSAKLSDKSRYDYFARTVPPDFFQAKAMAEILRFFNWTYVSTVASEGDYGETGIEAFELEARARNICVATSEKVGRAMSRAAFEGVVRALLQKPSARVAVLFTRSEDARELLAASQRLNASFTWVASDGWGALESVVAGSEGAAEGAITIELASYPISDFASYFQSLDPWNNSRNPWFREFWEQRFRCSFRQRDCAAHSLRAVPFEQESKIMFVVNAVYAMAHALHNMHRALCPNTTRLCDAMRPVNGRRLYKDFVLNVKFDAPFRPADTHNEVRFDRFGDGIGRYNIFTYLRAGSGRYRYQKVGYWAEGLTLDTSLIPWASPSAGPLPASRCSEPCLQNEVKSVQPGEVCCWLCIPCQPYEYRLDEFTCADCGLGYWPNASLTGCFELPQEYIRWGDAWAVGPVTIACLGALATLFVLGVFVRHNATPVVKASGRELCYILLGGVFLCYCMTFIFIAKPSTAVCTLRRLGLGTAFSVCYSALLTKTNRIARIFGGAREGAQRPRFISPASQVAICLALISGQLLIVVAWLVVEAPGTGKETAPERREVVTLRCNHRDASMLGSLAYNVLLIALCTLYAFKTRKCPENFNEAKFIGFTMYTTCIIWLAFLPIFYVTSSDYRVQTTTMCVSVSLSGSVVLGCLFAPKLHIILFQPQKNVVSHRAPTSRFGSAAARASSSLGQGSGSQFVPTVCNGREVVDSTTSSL
# [7] = target: T4, Metabotropic glutamate receptor 3 (Homo sapiens, UniProt Q14832); test: Positive allosteric modulation of human mGluR3
# T4 sequence (Q14832 whole entry): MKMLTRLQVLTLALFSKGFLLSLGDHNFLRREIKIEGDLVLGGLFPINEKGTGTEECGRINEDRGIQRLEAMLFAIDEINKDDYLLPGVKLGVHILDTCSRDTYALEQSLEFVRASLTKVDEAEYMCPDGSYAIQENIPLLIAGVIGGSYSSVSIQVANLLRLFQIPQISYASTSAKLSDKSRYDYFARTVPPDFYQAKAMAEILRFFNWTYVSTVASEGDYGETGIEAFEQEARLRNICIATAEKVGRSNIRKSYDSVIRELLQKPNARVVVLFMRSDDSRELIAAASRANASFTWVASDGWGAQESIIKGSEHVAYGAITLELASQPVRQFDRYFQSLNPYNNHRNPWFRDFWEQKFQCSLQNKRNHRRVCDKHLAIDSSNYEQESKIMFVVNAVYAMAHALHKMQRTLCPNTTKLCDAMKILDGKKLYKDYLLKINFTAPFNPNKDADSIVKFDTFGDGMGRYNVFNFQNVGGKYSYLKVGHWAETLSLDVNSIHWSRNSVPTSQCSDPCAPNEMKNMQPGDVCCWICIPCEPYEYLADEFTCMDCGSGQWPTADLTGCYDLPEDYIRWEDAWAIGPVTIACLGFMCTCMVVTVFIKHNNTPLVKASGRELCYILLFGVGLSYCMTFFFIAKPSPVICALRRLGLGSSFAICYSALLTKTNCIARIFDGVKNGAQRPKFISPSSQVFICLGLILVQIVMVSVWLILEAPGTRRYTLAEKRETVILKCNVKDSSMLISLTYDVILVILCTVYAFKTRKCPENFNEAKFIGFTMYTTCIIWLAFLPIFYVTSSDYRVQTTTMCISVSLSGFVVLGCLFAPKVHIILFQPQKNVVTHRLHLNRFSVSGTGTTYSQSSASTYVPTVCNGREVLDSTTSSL
# [8] = target: Metabotropic glutamate receptor 4 (Homo sapiens, UniProt Q14833); test: Positive allosteric modulation of human mGluR4
# [9] = target: T5, Metabotropic glutamate receptor 5 (Homo sapiens, UniProt P41594); test: Positive allosteric modulation of human mGluR5
# [10] = target: T1, Metabotropic glutamate receptor 8; test: Positive allosteric modulation of human mGluR8
# [11] = target: Sigma non-opioid intracellular receptor 1 (Homo sapiens) (UniProt Q99720); test: Inhibition of human sigma-1 receptor at 10 uM relative to control
# Sigma non-opioid intracellular receptor 1 (Homo sapiens), sequence (Q99720 whole entry): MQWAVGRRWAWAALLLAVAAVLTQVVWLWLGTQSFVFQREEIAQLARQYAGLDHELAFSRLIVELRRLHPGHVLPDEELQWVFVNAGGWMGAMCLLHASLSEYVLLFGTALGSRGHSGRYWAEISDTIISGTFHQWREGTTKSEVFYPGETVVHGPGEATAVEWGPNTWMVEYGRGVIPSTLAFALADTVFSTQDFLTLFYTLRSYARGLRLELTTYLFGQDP
# [12] = Unbound fraction in rat plasma; format: ADME, cell-free
# [13] = Unbound fraction in mouse plasma; format: ADME, cell-free
# [14] = Unbound fraction in rat brain; format: ADME, tissue-based
# [15] = Unbound fraction in mouse brain; format: ADME, tissue-based
# Mus musculus [16] = test: Effect on locomotor response in wild type mouse assessed as decrease in distance travelled in an open field at 30 mg/kg, ip measured over 60 mins; format: functional, organism-based
# Mus musculus [17] = test: Effect on locomotor response in Grm7 knockout mouse assessed as decrease in distance travelled in an open field at 30 mg/kg, ip; format: functional, organism-based
# Mus musculus [18] = test: Anxiolytic activity in anxiety induced wild type mouse model assessed as reduction in marbles burying at 30 mg/kg; format: functional, organism-based
# Rattus norvegicus [19] = organism: Rattus norvegicus; test: Positive allosteric modulation of rat mGluR8 in presence of L-AP4 Max relative to control; details: filed as positive allosteric modulator
# [20] = Unbound brain-to-plasma concentration ratio in rat; format: ADME
# [21] = target: T2, Metabotropic glutamate receptor 1; test: Positive allosteric modulation of mGluR1 (unknown origin)
# [22] = target: T3, Metabotropic glutamate receptor 2; test: Positive allosteric modulation of mGluR2 (unknown origin)
# [23] = target: T4, Metabotropic glutamate receptor 3; test: Positive allosteric modulation of mGluR3 (unknown origin)
# [24] = target: T5, Metabotropic glutamate receptor 5; test: Positive allosteric modulation of mGluR5 (unknown origin)
# Metabotropic glutamate receptor 7, sequence (P35400 whole entry): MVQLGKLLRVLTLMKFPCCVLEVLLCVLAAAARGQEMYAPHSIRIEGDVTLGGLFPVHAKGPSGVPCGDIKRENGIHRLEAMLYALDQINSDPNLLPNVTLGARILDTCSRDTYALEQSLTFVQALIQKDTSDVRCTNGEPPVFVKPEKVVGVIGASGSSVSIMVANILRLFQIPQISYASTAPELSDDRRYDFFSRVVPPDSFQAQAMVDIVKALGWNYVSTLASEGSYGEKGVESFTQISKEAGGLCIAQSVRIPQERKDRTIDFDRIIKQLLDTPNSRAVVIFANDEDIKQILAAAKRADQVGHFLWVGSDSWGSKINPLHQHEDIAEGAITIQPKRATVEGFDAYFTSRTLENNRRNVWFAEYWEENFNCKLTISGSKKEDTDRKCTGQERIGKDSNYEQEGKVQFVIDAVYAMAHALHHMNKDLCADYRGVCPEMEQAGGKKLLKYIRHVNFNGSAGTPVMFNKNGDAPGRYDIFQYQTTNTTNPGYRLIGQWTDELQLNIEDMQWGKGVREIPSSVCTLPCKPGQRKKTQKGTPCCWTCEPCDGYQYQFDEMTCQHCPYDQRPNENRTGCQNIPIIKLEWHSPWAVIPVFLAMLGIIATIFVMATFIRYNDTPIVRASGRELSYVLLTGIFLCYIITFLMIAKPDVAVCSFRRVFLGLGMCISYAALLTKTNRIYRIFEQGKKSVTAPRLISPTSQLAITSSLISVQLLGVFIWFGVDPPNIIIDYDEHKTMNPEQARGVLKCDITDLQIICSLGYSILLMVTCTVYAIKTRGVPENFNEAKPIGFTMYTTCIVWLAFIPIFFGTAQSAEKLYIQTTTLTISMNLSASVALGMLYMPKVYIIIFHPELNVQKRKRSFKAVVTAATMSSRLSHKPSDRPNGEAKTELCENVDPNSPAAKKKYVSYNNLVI
smiles,measurement,setting,value
COc1cc(F)cc2c(N3CCN4c5ccccc5OC[C@@H]4C3)c(C#N)nnc12,EC50,[1],260 nM
same,EC50,[2],> 30000 nM
COC(=O)c1ccc(-n2c(C)cc(C(=O)CSc3ccc(NC(C)=O)cc3)c2C)cc1,EC50,[3],900 nM
COc1cc(F)cc2c(N3CCN(c4ccccc4OC4CC4)CC3)c(C#N)nnc12,EC50,[1],310 nM
same,Activity,Rattus norvegicus [4],inactive
COc1cc(F)cc2c(N3CCN4c5c(F)cccc5OC[C@@H]4C3)c(C#N)nnc12,Activity,Rattus norvegicus [4],inactive
same,EC50,[5],> 30000 nM
same,EC50,[6],> 30000 nM
same,EC50,[7],> 30000 nM
same,EC50,[8],> 30000 nM
same,EC50,[9],> 30000 nM
same,EC50,[10],> 30000 nM
same,inhibition,[11],95%
same,fraction unbound,[12],0.3
same,Fu,[13],0.024
same,fraction unbound,[14],0.01
same,fraction unbound,[15],0.08
same,Activity,Mus musculus [16],inactive
same,Activity,Mus musculus [17],inactive
same,Activity,Mus musculus [18],inactive
COc1cc(C(F)(F)F)cc2c(N3CCN4c5ccccc5OC[C@H]4C3)c(C#N)nnc12,EC50,[1],340 nM
same,EC50,[2],> 30000 nM
COc1cc(F)cc2c(N3CCN4c5ccccc5NC(=O)C4C3)c(C#N)nnc12 (stereo not given),EC50,[1],1200 nM
same,EC50,[2],> 30000 nM
COc1cc(F)cc2c(N3CCN4c5c(F)cccc5OCC4C3)c(C#N)nnc12 (stereo not given),EC50,[2],120 nM
same,Activity,Rattus norvegicus [19],48%
COc1cc(F)cc2c(N3CCN4c5ccccc5OC[C@H]4C3)c(C#N)nnc12,EC50,[1],43 nM
same,EC50,[2],190 nM
same,pEC50,[2],6.72
same,Activity,Rattus norvegicus [19],68%
[2H]C([2H])([2H])Oc1cc(F)cc2c(N3CCN(c4ccccc4F)CC3)c(C#N)cnc12,Kp uu,"[20]; read-out: K(p,uu,brain)",0.9
same,EC50,[3],> 10000 nM
same,EC50,[21],> 10000 nM
same,EC50,[22],> 10000 nM
same,EC50,[23],> 10000 nM
same,EC50,[24],> 10000 nM
COc1cc(F)cc2c(N3CCN4c5ccccc5NCC4C3)c(C#N)nnc12 (stereo not given),EC50,[1],120 nM
same,EC50,[2],620 nM
same,pEC50,[2],6.21
same,Activity,Rattus norvegicus [19],68%
COc1cc(F)cc2c(N3CCN(c4ccccc4OC(C)C)CC3)c(C#N)nnc12,EC50,[1],260 nM
same,Activity,Rattus norvegicus [4],inactive
COc1cc(F)cc2c(N3CCN(c4ccccc4F)CC3)c(C#N)nnc12,EC50,[1],360 nM
same,"K(p,uu,brain)",[20],1.9
COc1cc(C(F)(F)F)cc2c(N3CCN4c5ccccc5OC[C@@H]4C3)c(C#N)nnc12,EC50,[1],> 30000 nM
same,EC50,[2],> 30000 nM
COc1ccccc1N1CCN(c2c(C#N)nnc3c(OC)cc(F)cc23)CC1,EC50,[1],820 nM
same,Activity,Rattus norvegicus [4],inactive
